# From PubChem BioAssay AID1508591
# Settings: rat; liver microsomes; pH 7.4; 15.0 min; 1.0 µM
row,half-life,Structure (SMILES)
1,> 30 min,O=C(Nc1ncc(-c2ccccc2)s1)c1ccc(-c2cccc([N+](=O)[O-])c2)o1
2,> 30 min,Cc1onc(-c2ccccc2)c1C(=O)Nc1nnc(COc2ccc(Cl)cc2)s1
3,14.8 min,C#CCNC(=O)c1nc(-c2cccnc2)c2ccccn12
4,1.6 min,COc1ccc(S(=O)(=O)Nc2cnccc2C(=O)Nc2nc(-c3ccccc3)cs2)cc1
5,16 min,COc1ccccc1S(=O)(=O)Nc1cnccc1C(=O)Nc1nc(-c2ccccc2)cs1
6,2.08 min,Cc1ccc(NS(=O)(=O)c2ccc3[nH]c4c(c3c2)CCCCCC4)cc1
7,> 30 min,Cc1cc(Cl)ccc1COc1ccnn1-c1cc(C(=O)O)ccn1
8,5.16 min,CNc1ccc(Br)cc(C(=O)/C=C/c2ccc(OC)cc2OC)c1=O
9,6.4 min,N#Cc1cnccc1-c1nc(Nc2ccc(F)c(F)c2)c2ccccc2n1
10,18.3 min,NC(=O)C1CCN(c2nc(-c3ccc(OCc4ccccc4)cc3)cs2)CC1
11,1.53 min,O=C(Nc1ccccc1)C1CCN(c2nc(-c3ccc(Br)cc3)cs2)CC1
12,7.09 min,NC(=O)C1CCN(c2nc(-c3ccc(F)cc3)cs2)CC1
13,1.44 min,CCc1cccc(NC(=O)C(Cc2ccccc2)NS(=O)(=O)c2cccs2)c1 (stereo not drawn)
14,> 30 min,CC[C@H](NC(=O)c1c(O)c(-c2ccccc2)nc2ccccc12)c1ccccc1
15,> 30 min,NC1CCN(c2nc(-c3ccc(Br)cc3)cs2)CC1
16,16 min,O=C1Nc2ccccc2/C1=C\c1ccc(O)c(Cl)c1
17,5.8 min,Cc1ccc(-c2cc(C(=O)Nc3ccc(S(=O)(=O)NCc4nccs4)cc3)c3ccccc3n2)cc1C
18,8.47 min,COc1ccc(CNC(=O)c2sc3nc(C)cc(C)c3c2N)cc1
19,> 30 min,O=C(Nc1ccc(S(=O)(=O)Nc2nccs2)cc1)c1ccc2ccccc2c1
20,1.55 min,O=C(c1cc2ccccc2[nH]1)N1CCc2c(n(Cc3cccnc3)n(CCc3ccccc3)c2=O)C1
21,14.4 min,O=C(Nc1ccc2oc(-c3cccnc3)nc2c1)c1ccc(-c2ccccc2)o1
22,10.6 min,Cc1cccc2oc(NC3=NC(c4[nH]ncc4Cl)C4=C(CCCC4=O)N3)nc12 (stereo not drawn)
23,5.62 min,CCc1ccc(C2N=C(N)Nc3nc4ccccc4n32)cc1 (stereo not drawn)
24,5.49 min,CCN(CC)S(=O)(=O)c1ccc(N2CCOCC2)c(NC(=O)c2[nH]c(C)c(C(C)=O)c2C)c1
25,1.47 min,Fc1ccccc1CNCc1ccc(-c2ccnc3[nH]ccc23)cc1
26,2.69 min,COc1ccc(-n2nc(C)c([C@@H]3C=C[C@@H](NCc4ccc(N(C)C)cc4)C3)c2C)cc1

row,half-life,Structure (SMILES)
1,> 30 min,O=[S+]([O-])(Nc1nccs1)c1ccc(NCc2cc(F)cc(Cl)c2O)cc1
2,> 30 min,CCOC(=O)N1CCN(Cc2nc3cc(NC(=O)CC(C)C)ccc3n2C(C)C)CC1
3,5.52 min,Cn1ccc2c(C(=O)NCc3cccnc3)nc(-c3ccccc3C#N)cc21
4,5.2 min,COc1ccc(NC(=O)c2c(C)cccc2C)cc1S(=O)(=O)Nc1ccc(Br)cc1
5,9 min,O=[S+]([O-])(Nc1ccccc1)c1ccc(NCc2cccc(C(F)(F)F)c2F)cc1
6,> 30 min,O=C(Nc1cccc(S(=O)(=O)C(F)(F)F)c1)c1ccccc1NC(=O)c1ccccc1OCC(F)(F)F
7,> 30 min,O=C(Nc1ccc(OC(F)(F)Cl)cc1)c1cnc(N2CC[C@@H](O)C2)c(-c2ccn[nH]2)c1
8,> 30 min,CC(=O)NC1CCN(c2nc(-c3ccc(Br)cc3)cs2)CC1
9,9.7 min,CC(C)(C)n1cnc2cc(C(=O)N3CCCCC3)ccc21
10,> 30 min,COc1ccc(-c2ccc3ncc4c(c3c2)n(-c2ccc(N3CCNCC3)c(C(F)(F)F)c2)c(=O)n4C)cn1
11,11.4 min,O=C1CCCC2=C1C(c1ncccc1Br)N=C(Nc1nc3ccccc3o1)N2 (stereo not drawn)
12,> 30 min,Cn1c(CN2CCCCC2)nc2cc(NC(=O)c3cccc(Br)c3)ccc21
13,1.97 min,Cn1c(=O)c2cc(C(=O)NCCCN3CCN(c4ccccc4F)CC3)sc2c2ccccc21
14,1.3 min,CCOc1ccc(NC(=O)c2ccc(F)c(S(=O)(=O)N(CC)Cc3ccccc3)c2)cc1
15,> 30 min,CCCCC1CCC(C(=O)Nc2ccc(S(=O)(=O)Nc3nccs3)cc2)CC1 (stereo not drawn)
16,9.99 min,COC(=O)Nc1nc2ccc(SC(C)C)cc2[nH]1
17,> 30 min,COc1ccc(-c2nc3ccccc3s2)cc1NC(=O)c1ccc(F)cc1
18,1.97 min,CCc1cccc(NC(=O)CSc2nc3ccccc3nc2N2CCCCC2)c1
19,3.37 min,COc1ccc(S(=O)(=O)N2CCOCC2)cc1NC(=O)c1cccc(-n2cccc2)c1
20,11 min,CCOc1ccc(CCNC(=O)c2ccc(C3(C(F)(F)F)N=N3)cc2)cc1OCC
21,> 30 min,Cc1nnc(N2C(=O)c3oc4ccccc4c(=O)c3C2c2ccc(F)cc2)s1 (stereo not drawn)
22,1.41 min,Cc1nn2c(c1-c1ccccc1OCc1ccccc1)N(C(=O)Cc1ccc3c(c1)OCO3)CCC2
23,10.9 min,Nc1ncnc2c1c(-c1ccc(Oc3ccccc3)cc1)cn2C1CCCC1
24,1.71 min,NC(=O)C1CCN(c2nccc(-c3ccc4c(c3)OCCO4)n2)CC1
25,14 min,COC(=O)c1nc(-c2cccc3ccccc23)oc1OC
26,5.19 min,Cc1noc(C)c1-c1ccc2ncnc(NCc3cccc(Cl)c3)c2c1

row,half-life,Structure (SMILES)
1,> 30 min,NC(=O)COc1ccc(C2CC(=O)Nc3n[nH]c(Nc4ccccc4)c32)cc1 (stereo not drawn)
2,8.6 min,Cc1sc(NC(=O)Cc2ccc3c(c2)OCO3)nc1-c1ccc2c(c1)CCN2
3,2.95 min,Fc1ccc(Cc2nc3nccc(-c4cccs4)n3n2)cc1
4,12.4 min,Cc1cc(CNC(=O)c2ccc3c(c2)n(CC2CC2)c(=O)n3C2CCCCC2)on1
5,4.41 min,CCC(=O)NC(c1ccc(OC)cc1)c1cc(Cl)c2cccnc2c1O (stereo not drawn)
6,8.1 min,Cc1cc(-c2nnc3n2CCCCC3)c(C)n1-c1cccc(C#N)c1
7,1.43 min,CCOc1ccc(NC(=O)c2nc(S(=O)(=O)Cc3ccccc3F)ncc2Cl)cc1
8,11 min,Cc1ccnc(NC(=S)N2CCCC(Nc3cccc(C(F)(F)F)c3)C2)c1 (stereo not drawn)
9,9.7 min,COc1c(NS(=O)(=O)c2ccc(C)cc2)cccc1C(=O)Nc1nc(-c2ccccc2)cs1
10,5.8 min,Cc1ccc(S(=O)(=O)Nc2cnccc2C(=O)Nc2nc(-c3cccc(C)c3)cs2)cc1
11,3.76 min,N#Cc1ccccc1-c1csc(N2CCC(C(N)=O)CC2)n1
12,2.96 min,CCCN(CCC)CCc1cccc2c1CC(=O)N2
13,6.54 min,CO[C@@H]1[C@H](N(C)C(=O)c2ccccc2)C[C@H]2O[C@]1(C)n1c3ccccc3c3c4c(c5c6ccccc6n2c5c31)C(=O)NC4
14,2.84 min,CC(C)(C#N)c1ccc(N2C(=O)OCc3cnc4ccc(-c5cnc6ccccc6c5)cc4c32)cc1
15,> 30 min,O=C(NCCc1cnc[nH]1)c1ccc(-c2ncc3cnc(-c4cccc(F)c4)cn23)cc1
16,1.52 min,CC1CCN(C(=O)c2ccc(-c3ccc(N4CCSCC4)nc3)cc2)CC1
17,17.9 min,Cc1ccc2cccc(NC(=O)c3ccc(OC(C)C)cc3)c2n1
18,> 30 min,CC(C)CN(CC(=O)N(CCCN1CCCC1=O)CC(N)=O)C(=O)CNCCc1ccccc1F
19,> 30 min,Cc1nc2ccc(C(=O)N3CCC4(CC3)CC(=O)c3c(cnn3C(C)C)C4)cc2[nH]1
20,> 30 min,Fc1ccc(Nc2nc(-n3ccnc3)nc3ccccc23)cc1F
21,17.6 min,Cc1cccc(N2CCN(c3nc4ccccc4c4nnc(C)n34)CC2)c1C
22,> 30 min,Cc1noc(C)c1-c1ccc2ncnc(N3CCC(C(=O)O)CC3)c2c1
23,> 30 min,C[C@@H](c1ccc2nccn2c1)n1nnc2ncc(-c3cnn(C)c3)nc21
24,5.53 min,Oc1ccc(CNc2ccc(C(F)(F)F)cc2F)c2cccnc12
25,1.58 min,COc1ccccc1CNS(=O)(=O)c1ccc(-c2cnc(C3CC3)o2)cc1
26,9.8 min,CCc1ccc(CNc2ccc3c(c2)ncn3C(C)(C)C)cc1

row,half-life,Structure (SMILES)
1,21 min,Cc1cccc(CNc2ccc(S(=O)(=O)Nc3nccs3)cc2)c1O
2,2 min,Cc1ccnc(NC(=S)N2CCN(c3ccccc3C(F)(F)F)CC2)c1
3,5.08 min,Cc1ccc(NC2=C(c3ccc(C(F)(F)F)cc3)C(=O)c3ccccc32)cc1C
4,3.2 min,O=C1CCCC2=C1C(c1[nH]ncc1Cl)N=C(Nc1nc3c(Br)cccc3o1)N2 (stereo not drawn)
5,1.73 min,CC1Cc2cc(S(=O)(=O)NCc3ccc(N(C)C)cc3)ccc2N1C(=O)C1CCC1 (stereo not drawn)
6,4.34 min,OCCN1CCN(CCCN2c3ccccc3Sc3ccc(Cl)cc32)CC1
7,> 30 min,COc1cccc(CNc2ccc(C(=O)Nc3nccs3)cc2)c1O
8,1.62 min,Cc1ccc(-n2c(C)cc(-c3nnc4n3CCCCC4)c2C)cc1
9,> 30 min,O=C(N/N=C/c1ccc(Sc2ccccn2)o1)c1ccncc1
10,19 min,CCOC(=O)c1cnc2ccc(-c3cncc(NS(=O)(=O)c4ccccc4)c3)cn12
11,7.57 min,COc1ccc(NC2=C(c3ccc(C(F)(F)F)cc3)C(=O)c3ccccc32)cc1
12,> 30 min,Cc1cc(NS(=O)(=O)c2ccc(NC(=O)c3oc4ccccc4c3C)cc2)nc(C)n1
13,18 min,O=S(=O)(Nc1cnc2ccccc2c1)c1ccc(NCc2cccc(Cl)c2O)cc1
14,5.67 min,CC(C)c1ccc(CC(=O)N2CCCc3ncc(C(=O)Nc4cccnc4)cc32)cc1
15,5.9 min,COc1cccc(CNC(=O)c2c(OC)cc(=O)n3c2CCN(C(=O)c2ccc(C)cc2C)CC3)c1
16,> 30 min,Cn1cnc(S(=O)(=O)Nc2cnccc2C(=O)Nc2nc(-c3ccccc3)cs2)c1
17,24.6 min,CN1CCN(Cc2ccc(-c3ccc(C(C)(C)C#N)cc3)nc2)CC1
18,1.6 min,CC(C)Oc1ccc(-c2ccc(=O)n(CC(=O)NCCc3ccccc3)n2)cc1
19,4.1 min,O=C(NCCCCc1ccccc1)C1CCN(c2nc(-c3ccc(Br)cc3)cs2)CC1
20,8.6 min,c1ccc(Nc2cc(-c3ccoc3)ncn2)cc1
21,5.7 min,CNC(=O)C1=C(C)NC(Nc2nc3ccccc3o2)=NC1c1[nH]ncc1Cl (stereo not drawn)
22,15.9 min,O=c1c2c([nH]c3ccc(Br)cc13)CCCC2
23,4.9 min,Cc1ccc(S(=O)(=O)Nc2ccccc2C(=O)Nc2ccc(-c3ccccc3)cn2)cc1

row,Structure (SMILES),half-life
1,Cc1c([C@@H](C)C2NC[C@H](C)C[C@@H]2O)ccc2c1C[C@@H]1[C@H]2CC=C2C[C@@H](O)CC[C@@]21C (stereo partly drawn),> 30 min
2,COc1ccc(C[C@@H]2C(=O)N[C@H](C)C(=O)N(C)[C@@H]3C(=O)N(C)[C@@H](Cc4ccc(O)c(c4)Oc4ccc(cc4)[C@H]3O)C(=O)N[C@@H](C)C(=O)N[C@H](C)C(=O)N2C)cc1,27.6 min
